Laboratory results: patent publication US11040958B2, “Triazole antimicrobial derivative, pharmaceutical composition and use thereof” (priority 2017, dated 2021)
Where two headings read alike, the source gives them in different places.

Legend:
[1] = Solid stability test (25°C, RH 60%, 30 days); type: physicochemical; conditions: 25°C±2°C, relative humidity 60%±2%
Experimental: Experimental conditions: 25° C.±2° C., relative humidity 60%±2%
Experimental instrument: Agilent 1260 HPLC; chamber for stability test
Experimental method: each compound of the present disclosure was packaged (the inner packaging material was a penicillin bottle; the outer packaging material was a double-layer aluminum foil bag, and a desiccant was added inside and outside the package), placed in the chamber for stability test, at a temperature of 25° C.±2° C. and a relative humidity of 60%±2%. The degradation situation of the compounds for 30 days was examined. The contents of total impurities before and after 30 days of each compound were compared and the results were as follows: […]

[2] = Pharmacokinetics after single intravenous administration in rats (plasma voriconazole); conditions: for T1/2 / AUClast: rat, in vivo, 2.5 mg/kg
Experimental: Dosage for administration: 2.5 mg/kg (calculated as voriconazole)
Dosing volume for administration: 2.5 ml/kg
Drug concentration: 1 mg/mL (calculated as voriconazole)
Route of administration: tail vein injection Experimental animals: SD rats, SPF grade, weighing 180-220 g, half male and half female; the SD rats were randomized into groups of 6 animals each, three males and three females in each group. Experimental method: Blood samples were collected at different time points after tail vein administration, and the plasma concentrations of voriconazole were measured.

[3] = Solubility test in deionized water (HPLC, external calibration); type: physicochemical; conditions: for solubility at 30 min: 25 °C, thermodynamic from solid
Experimental: Experimental condition: 25±2° C.
Dissolving medium: deionized water
Experimental method: 1 mg voriconazole and appropriate amount of each compound were weighed, placed in 1 ml deionized water separately, shaken vigorously for 30 s every 5 mins for 30 mins.

[4] = test system: Candida albicans ATCC10231; test: Systemic fungal infection in mice, intravenous administration, survival; type: in vivo; conditions: ICR mice, tail vein, 5 mg/kg (calculated as voriconazole) once daily for 5 days
Experimental: ICR mice, weighing 18-22 g, male, provided by the Hubei Experimental Animal Center.
The standard strain Candida albicans was purchased from the American Type Culture Collection, and the strain number was ATCC10231.
Before the experiment, a small amount of Candida albicans was picked from the SDA medium preserved at 4° C. by inoculation circle, and inoculated into 1 ml YPD (Yeast Extract Peptone Dextrose Medium, the same below) culture medium, under shake cultivation at 30° C., 200 rpm, activated for 16 hours to make the fungus in the late stage of the exponential growth phase. Blood cell counting plate was used to count. The concentration of the broth was adjusted to 1*10^3-5*10^3 CFU/ml with RPMI1640 (Roswell Park Memorial Institute 1640, the same below) culture medium. The Candida albicans monoclone on the SDA plate was picked and inoculated into 1 ml YPD medium, cultured at 35° C., 200 rpm for 16 hours to the late exponential growth phase, 1% of which was then inoculated in fresh medium for 6 hours, centrifuged at 1000×g for 5 mins, washed three times with saline until the supernatant was colorless, while hemocytometer was used to count. The cell concentration was adjusted to 5*10^6/ml. The tail vein injection of 0.1 ml/10 g was carried out to cause a systemic fungal infection in mice. The mice were randomized into groups of 10 each. Since voriconazole was insoluble in vehicle (physiological saline), the mice of the voriconazole group in the test were injected a commercially available voriconazole (Pfizer, product lot number Z467001), that is, sulfobutyl ether-β-cyclodextrin used as a solubilizer, while other groups used physiological saline as a solvent. After establishing a systemic fungal infection model in mice for 2 hours, each administration group was administered with 5 mg/kg (calculated as voriconazole) drug in the tail vein, with the volume for administration of 0.1 ml/10 g. The mice in the model group were administered 0.1 ml/10 g of 0.9% sodium chloride solution, once daily, for 5 consecutive days. The death situation of the mice was inspected and the survival time was recorded. After a total of 7 days of observation, all dead mice were treated with fire using ethanol.

Compound	Content increase of total impurity (25° C., placed for 30 days) [1] [%]	T1/2 [2]	Solubility ([3]; deionized water, 25±2°C) [mg/mL]	also measured
CC(OC(=O)OCCS)[n+]1cnn(C[C@](O)(c2ccc(F)cc2F)[C@@H](C)c2ncncc2F)c1 (some centres unmarked) [Compound 16031]	0.97			
CC(OC(=O)N(C)c1ncccc1COC(=O)C[C@H](N)C(=O)O)[n+]1cnn(C[C@](O)(c2ccc(F)cc2F)[C@@H](C)c2ncncc2F)c1.[Cl-] (some centres unmarked) [QR16003]	1.37	similar	>50	
CC(OC(=O)N(C)c1ncccc1COC(=O)CCC(=O)[O-])[n+]1cnn(C[C@](O)(c2ccc(F)cc2F)[C@@H](C)c2ncncc2F)c1.[Cl-].[Na+] (some centres unmarked) [QR16004]			>50	survival rate of mice, day 1 ([4]; day 1): 100%; survival rate of mice, day 2 ([4]; day 2): 100%; survival rate of mice, day 3 ([4]; day 3): 100%; survival rate of mice, day 4 ([4]; day 4): 90%; survival rate of mice, day 5 ([4]; day 5): 90%; survival rate of mice, day 6 ([4]; day 6): 80%; AUClast [2]: 9586 ± 2352 ng·h/mL
CC(OC(=O)N(C)c1ncccc1COC(=O)[C@@H](N)CCCN)[n+]1cnn(C[C@](O)(c2ccc(F)cc2F)[C@@H](C)c2ncncc2F)c1.Cl.Cl.Cl.[I-] (some centres unmarked) [QR16006]	1.14		>50	
CC(OC(=O)N(C)c1ncccc1COC(=O)[C@@H](N)CCCN)[n+]1cnn(C[C@](O)(c2ccc(F)cc2F)[C@@H](C)c2ncncc2F)c1.O=P([O-])(O)O (some centres unmarked) [QR16011]	0.96		>50	
CC(OC(=O)N(C)c1ncccc1COC(=O)[C@@H](N)CCCN)[n+]1cnn(C[C@](O)(c2ccc(F)cc2F)[C@@H](C)c2ncncc2F)c1.O=[N+]([O-])[O-] (some centres unmarked) [QR16012]	0.92		>50	
CC(OC(=O)N(C)c1ncccc1COC(=O)C(N)Cc1ccc(O)cc1)[n+]1cnn(CC(O)(c2ccc(F)cc2F)C(C)c2ncncc2F)c1.Cl.Cl.[Cl-] (centres unmarked) [QR16018]	1.15		>50	
CNCCC[C@H](N)C(=O)OCc1cccnc1N(C)C(=O)OC(C)[n+]1cnn(C[C@](O)(c2ccc(F)cc2F)[C@@H](C)c2ncncc2F)c1.[Cl-] (some centres unmarked) [QR16019]	0.88		>50	
CNCC[C@H](N)C(=O)OCc1cccnc1N(C)C(=O)OC(C)[n+]1cnn(C[C@](O)(c2ccc(F)cc2F)[C@@H](C)c2ncncc2F)c1 (some centres unmarked) [QR16021]	1.14			AUClast ([2]; both, SD, iv): 7056 ± 2532 ng·h/mL; solubility at 30 min ([3]; deionized water, 25±2°C): > 50 mg/mL
CC(OC(=O)OCCCCOP(=O)(O)O)[n+]1cnn(C[C@](O)(c2ccc(F)cc2F)[C@@H](C)c2ncncc2F)c1 (some centres unmarked) [QR16024]	2.84	similar	>50	
CC(OC(=O)OCCCCCOP(=O)(O)O)[n+]1cnn(C[C@](O)(c2ccc(F)cc2F)[C@@H](C)c2ncncc2F)c1 (some centres unmarked) [QR16025]	1.57	similar	>50	
CC(OC(=O)OCCOCCOCCOP(=O)(O)O)[n+]1cnn(C[C@](O)(c2ccc(F)cc2F)[C@@H](C)c2ncncc2F)c1 (some centres unmarked) [QR16033]		similar	>50	
CC(OC(=O)SC[C@H](N)C(=O)O)[n+]1cnn(C[C@](O)(c2ccc(F)cc2F)[C@@H](C)c2ncncc2F)c1 (some centres unmarked) [QR16034]		similar		Solubility [3]: 12.5 mg/mL
CC(OC(=O)NCC(=O)O)[n+]1cnn(C[C@](O)(c2ccc(F)cc2F)[C@@H](C)c2ncncc2F)c1 (some centres unmarked) [QR16038]		similar		
CC(OC(=O)NCC[C@H](N)C(=O)O)[n+]1cnn(C[C@](O)(c2ccc(F)cc2F)[C@@H](C)c2ncncc2F)c1.Cl.[Cl-] (some centres unmarked) [QR16039]	1.22	similar		
C[C@@H](c1ncncc1F)[C@](O)(Cn1c[n+](CC(=O)O)cn1)c1ccc(F)cc1F [QR16043]		similar		
CC(OC(=O)OCCOP(=O)(O)O)[n+]1cnn(C[C@](O)(c2ccc(F)cc2F)[C@@H](C)c2ncncc2F)c1 (some centres unmarked) [QR16046]	0.79			solubility at 30 min ([3]; deionized water, 25±2°C): > 50 mg/mL
CC(OC(=O)N(C)c1ncccc1COC(=O)CN)[n+]1cnn(C[C@](O)(c2ccc(F)cc2F)[C@@H](C)c2ncncc2F)c1.O=S(=O)([O-])O (some centres unmarked) [SF16001]	0.37		>50	
CC(OC(=O)N(C)c1ncccc1COC(=O)[C@@H](N)CCCN)[n+]1cnn(C[C@](O)(c2ccc(F)cc2F)[C@@H](C)c2ncncc2F)c1 (some centres unmarked) [SF16002]	0.67			solubility at 30 min ([3]; deionized water, 25±2°C): > 50 mg/mL
CC(OC(=O)N(C)c1ncccc1COC(=O)[C@@H](N)CCC(N)=O)[n+]1cnn(C[C@](O)(c2ccc(F)cc2F)[C@@H](C)c2ncncc2F)c1.O=S(=O)([O-])O (some centres unmarked) [SF16013]	0.48			
CC(OC(=O)N(C)c1ncccc1COC(=O)[C@@H](N)CC(N)=O)[n+]1cnn(C[C@](O)(c2ccc(F)cc2F)[C@@H](C)c2ncncc2F)c1.O=S(=O)([O-])O (some centres unmarked) [SF16014]	0.36			
CC(OC(=O)N(C)c1ncccc1COC(=O)[C@@H](N)CO)[n+]1cnn(C[C@](O)(c2ccc(F)cc2F)[C@@H](C)c2ncncc2F)c1.O=S(=O)([O-])O (some centres unmarked) [SF16015]	0.32			
CC(OC(=O)N(C)c1ncccc1COC(=O)[C@@H](N)[C@@H](C)O)[n+]1cnn(C[C@](O)(c2ccc(F)cc2F)[C@@H](C)c2ncncc2F)c1.O=S(=O)([O-])O (some centres unmarked) [SF16016]	0.49			
CC(OC(=O)N(C)c1ncccc1COC(=O)[C@@H](N)CCCCN)[n+]1cnn(C[C@](O)(c2ccc(F)cc2F)[C@@H](C)c2ncncc2F)c1 (some centres unmarked) [SF16017]	0.46			
CNCC(=O)OCc1cccnc1N(C)C(=O)OC(C)[n+]1cnn(C[C@](O)(c2ccc(F)cc2F)[C@@H](C)c2ncncc2F)c1.O=S(=O)([O-])O (some centres unmarked) [SF16020]	0.62			
C[C@@H](c1ncncc1F)[C@](O)(Cn1cncn1)c1ccc(F)cc1F [Voriconazole, reference compound]				plasma concentration of voriconazole ([2]; control group of voriconazole dissolved in physiological saline, tail vein injection, SD rats): not detected; solubility at 30 min ([3]; deionized water, 25±2°C): < 1 mg/mL
